{"source": "PubChem BioAssay (NCI)", "assay_in_all_cases": "growth of human tumour cells (NCI), 48 h", "key": {"[1]": {"system": "OVCAR-5 ovarian"}, "[2]": {"system": "SW-620 colon"}, "[3]": {"system": "HOP-92 NSCLC"}, "[4]": {"system": "T-47D breast"}, "[5]": {"system": "NCI/ADR-RES ovarian"}, "[6]": {"system": "SN12C renal"}, "[7]": {"system": "EKVX NSCLC"}, "[8]": {"system": "K-562 leukemia"}, "[9]": {"system": "SF-539 CNS"}, "[10]": {"system": "SF-295 CNS"}, "[11]": {"system": "HCT-116 colon"}, "[12]": {"system": "SNB-19 CNS"}, "[13]": {"system": "TK-10 renal"}, "[14]": {"system": "SK-OV-3 ovarian"}, "[15]": {"system": "SR leukemia"}, "[16]": {"system": "HT29 colon"}, "[17]": {"system": "SF-268 CNS"}, "[18]": {"system": "SK-MEL-5 melanoma"}, "[19]": {"system": "MDA-N"}, "[20]": {"system": "UACC-257 melanoma"}, "[21]": {"system": "MOLT-4 leukemia"}, "[22]": {"system": "RXF 393 renal"}, "[23]": {"system": "OVCAR-8 ovarian"}, "[24]": {"system": "MDA-MB-231 breast"}, "[25]": {"system": "CAKI-1 renal"}, "[26]": {"system": "LOX IMVI melanoma"}, "[27]": {"system": "OVCAR-4 ovarian"}, "[28]": {"system": "UO-31 renal"}, "[29]": {"system": "HCT-15 colon"}, "[30]": {"system": "MDA-MB-435"}, "[31]": {"system": "MALME-3M melanoma"}, "[32]": {"system": "RPMI-8226 leukemia"}, "[33]": {"system": "SK-MEL-28 melanoma"}, "[34]": {"system": "KM12 colon"}, "[35]": {"system": "HCC-2998 colon"}, "[36]": {"system": "NCI-H460 lung"}, "[37]": {"system": "SNB-75 CNS"}, "[38]": {"system": "786-0 renal"}, "[39]": {"system": "SK-MEL-2 melanoma"}, "[40]": {"system": "CCRF-CEM leukemia"}, "[41]": {"system": "A549 NSCLC"}, "[42]": {"system": "BT-549 breast"}, "[43]": {"system": "MCF7 breast"}, "[44]": {"system": "NCI-H23 lung"}, "[45]": {"system": "A498 renal"}, "[46]": {"system": "NCI-H522 lung"}, "[47]": {"system": "HL-60(TB) leukemia"}, "[48]": {"system": "HS 578T breast"}, "[49]": {"system": "ACHN renal"}, "[50]": {"system": "COLO 205 colon"}, "[51]": {"system": "DU-145 prostate"}, "[52]": {"system": "UACC-62 melanoma"}, "[53]": {"system": "M14 melanoma"}, "[54]": {"system": "HOP-62 NSCLC"}, "[55]": {"system": "OVCAR-3 ovarian"}, "[56]": {"system": "U251 CNS"}, "[57]": {"system": "IGROV1 ovarian"}}, "note": "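A five-concentration, 48-hour dose response in 96-well plates underlies each endpoint, interpolated linearly between surrounding concentrations. TGI is the concentration that stops growth completely.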"}
{"smiles": "CN(C)C(=O)O/N=C1/C(c2c(O)[nH]c3ccccc23)=Nc2ccccc21", "values": [{"measurement": "TGI", "setting": "[1]", "result": "> 100", "unit": "µM"}, {"measurement": "TGI", "setting": "[2]", "result": "> 100", "unit": "µM"}, {"measurement": "TGI", "setting": "[3]", "result": 33, "unit": "µM"}, {"measurement": "TGI", "setting": "[4]", "result": 50.6, "unit": "µM"}, {"measurement": "TGI", "setting": "[5]", "result": "> 100", "unit": "µM"}, {"measurement": "TGI", "setting": "[6]", "result": "> 100", "unit": "µM"}, {"measurement": "TGI", "setting": "[7]", "result": 33.5, "unit": "µM"}, {"measurement": "TGI", "setting": "[8]", "result": "> 100", "unit": "µM"}, {"measurement": "TGI", "setting": "[9]", "result": 21.4, "unit": "µM"}, {"measurement": "TGI", "setting": "[10]", "result": 68.8, "unit": "µM"}, {"measurement": "TGI", "setting": "[11]", "result": "> 100", "unit": "µM"}, {"measurement": "TGI", "setting": "[12]", "result": 39.1, "unit": "µM"}, {"measurement": "TGI", "setting": "[13]", "result": 57.1, "unit": "µM"}, {"measurement": "TGI", "setting": "[14]", "result": 48.8, "unit": "µM"}, {"measurement": "TGI", "setting": "[15]", "result": 35.4, "unit": "µM"}, {"measurement": "TGI", "setting": "[16]", "result": "> 100", "unit": "µM"}, {"measurement": "TGI", "setting": "[17]", "result": 28.5, "unit": "µM"}, {"measurement": "TGI", "setting": "[18]", "result": "> 100", "unit": "µM"}, {"measurement": "TGI", "setting": "[19]", "result": "> 100", "unit": "µM"}, {"measurement": "TGI", "setting": "[20]", "result": "> 100", "unit": "µM"}, {"measurement": "TGI", "setting": "[21]", "result": 41.5, "unit": "µM"}, {"measurement": "TGI", "setting": "[22]", "result": 14.1, "unit": "µM"}, {"measurement": "TGI", "setting": "[23]", "result": 66.1, "unit": "µM"}, {"measurement": "TGI", "setting": "[24]", "result": 65, "unit": "µM"}, {"measurement": "TGI", "setting": "[25]", "result": 72.6, "unit": "µM"}, {"measurement": "TGI", "setting": "[26]", "result": "> 100", "unit": "µM"}, {"measurement": "TGI", "setting": "[27]", "result": 33.1, "unit": "µM"}, {"measurement": "TGI", "setting": "[28]", "result": "> 100", "unit": "µM"}, {"measurement": "TGI", "setting": "[29]", "result": "> 100", "unit": "µM"}, {"measurement": "TGI", "setting": "[30]", "result": "> 100", "unit": "µM"}, {"measurement": "TGI", "setting": "[31]", "result": 30, "unit": "µM"}, {"measurement": "TGI", "setting": "[32]", "result": "> 100", "unit": "µM"}, {"measurement": "TGI", "setting": "[33]", "result": "> 100", "unit": "µM"}, {"measurement": "TGI", "setting": "[34]", "result": "> 100", "unit": "µM"}, {"measurement": "TGI", "setting": "[35]", "result": "> 100", "unit": "µM"}, {"measurement": "TGI", "setting": "[36]", "result": "> 100", "unit": "µM"}, {"measurement": "TGI", "setting": "[37]", "result": 8.69, "unit": "µM"}, {"measurement": "TGI", "setting": "[38]", "result": 21.8, "unit": "µM"}, {"measurement": "TGI", "setting": "[39]", "result": 33.4, "unit": "µM"}, {"measurement": "TGI", "setting": "[40]", "result": "> 100", "unit": "µM"}, {"measurement": "TGI", "setting": "[41]", "result": "> 100", "unit": "µM"}, {"measurement": "TGI", "setting": "[42]", "result": 43.7, "unit": "µM"}, {"measurement": "TGI", "setting": "[43]", "result": "> 100", "unit": "µM"}, {"measurement": "TGI", "setting": "[44]", "result": "> 100", "unit": "µM"}, {"measurement": "TGI", "setting": "[45]", "result": 18.1, "unit": "µM"}, {"measurement": "TGI", "setting": "[46]", "result": 75.3, "unit": "µM"}, {"measurement": "TGI", "setting": "[47]", "result": "> 100", "unit": "µM"}, {"measurement": "TGI", "setting": "[48]", "result": 40.2, "unit": "µM"}, {"measurement": "TGI", "setting": "[49]", "result": "> 100", "unit": "µM"}, {"measurement": "TGI", "setting": "[50]", "result": "> 100", "unit": "µM"}, {"measurement": "TGI", "setting": "[51]", "result": "> 100", "unit": "µM"}, {"measurement": "TGI", "setting": "[52]", "result": 98.6, "unit": "µM"}, {"measurement": "TGI", "setting": "[53]", "result": "> 100", "unit": "µM"}, {"measurement": "TGI", "setting": "[54]", "result": 48.9, "unit": "µM"}, {"measurement": "TGI", "setting": "[55]", "result": 57, "unit": "µM"}, {"measurement": "TGI", "setting": "[56]", "result": 33.9, "unit": "µM"}, {"measurement": "TGI", "setting": "[57]", "result": 64, "unit": "µM"}]}
